From patent US20070032468A1, “Novel thioxanthine derivatives for use as inhibitors of mpo” (AstraZeneca AB, priority 2003, published 2007)

Target: T1, human MPO (Homo sapiens, UniProt P05164)
T1 sequence (P05164 49-745): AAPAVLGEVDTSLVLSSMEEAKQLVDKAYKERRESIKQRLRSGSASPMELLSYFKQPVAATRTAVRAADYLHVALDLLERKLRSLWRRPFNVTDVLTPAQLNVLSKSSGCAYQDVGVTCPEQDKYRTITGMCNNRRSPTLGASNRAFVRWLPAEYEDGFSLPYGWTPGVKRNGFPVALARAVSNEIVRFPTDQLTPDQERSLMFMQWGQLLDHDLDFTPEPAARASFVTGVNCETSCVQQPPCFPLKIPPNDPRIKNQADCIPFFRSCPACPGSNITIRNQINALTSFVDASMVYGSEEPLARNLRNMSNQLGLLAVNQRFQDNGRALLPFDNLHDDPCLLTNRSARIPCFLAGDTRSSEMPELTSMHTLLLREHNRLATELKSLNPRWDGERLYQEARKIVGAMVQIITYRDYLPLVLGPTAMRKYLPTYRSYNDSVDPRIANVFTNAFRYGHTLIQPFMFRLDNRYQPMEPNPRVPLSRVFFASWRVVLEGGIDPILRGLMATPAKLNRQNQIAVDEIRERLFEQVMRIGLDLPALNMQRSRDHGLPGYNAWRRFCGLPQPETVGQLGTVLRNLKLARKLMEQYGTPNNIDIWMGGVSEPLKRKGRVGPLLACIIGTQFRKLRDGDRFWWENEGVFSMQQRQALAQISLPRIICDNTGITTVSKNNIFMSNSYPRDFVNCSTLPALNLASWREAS
Experiment: MPO inhibitory activity screen (TMB oxidation, absorbance)
Type: biochemical
Settings: human MPO 2.5 nM, H2O2 100 μM, buffer pH 6.5, absorbance at about 650 nM
Description: Methods for the determination of MPO inhibitory activity are disclosed in co-pending patent application WO 02/090575. The pharmacological activity of compounds according to the invention was tested in the following screen:
Assay buffer: 20 mM sodium/potassium phosphate buffer pH 6.5 containing 10 mM taurine and 100 mM NaCl.
Developing reagent: 2 mM 3,3′,5,5′-tetramethylbenzidine (TMB), 200 μM KI, 200 mM acetate buffer pH 5.4 with 20% DMF.
To 10 μl of diluted compounds in assay buffer, 40 μl of human MPO (final concentration 2.5 nM) was added for 10 minutes at room temperature. Then 50 μl of H2O2 (final concentration 100 μM), or assay buffer alone as a control, were added for 10 minutes at room temperature. The reaction was stopped by adding 10 μl 0.2 mg/ml of catalase (final concentration 18 μg/ml) for 5 minutes before 100 μl of TMB developing reagent was added (2 mM TMB in 200 mM acetate buffer pH 5.4 containing 20% dimethylformamide (DMF) and 200 μM KI). Plates were mixed and the amount of oxidised 3,3′,5,5′-tetramethylbenzidine formed was then measured after about 5 minutes using absorbance spectroscopy at about […]. IC50 values were then determined using standard procedures.

CC(C)Cn1c(=S)[nH]c(=O)c2[nH]c(C(F)(F)F)nc21 [Example 1, 3-Isobutyl-2-thioxo-8-trifluoromethyl-1,2,3,7-tetrahydro-purin-6-one]
IC50: < 60 µM
